We go through two molecules from patent EP3366310A1, “L-ARABINOSE AND USES THEREOF AGAINST VIBRIO GENUS BACTERIA” (priority 2017, dated 2018).

Structures are written as SMILES.

In assay [1] the test system is V. cholerae N16961. Description: Growth curves (optical density at 600 nm over time). In kind it is cell-based, Vibrio cholerae. As to conditions: for effect on V. cholerae growth or morphology: M9-MM, 0.2% of carbon source (Table 1 and Figure 5). Here is the method:
Cells were grown at 30°C in M9 minimal medium supplemented with 0.2% fructose and 1 µg/ml thiamine (M9-MM) and M9-MM + 0.1% casamino acids (M9-MM + CAA) in a 96-well microtiter plate and the optical density at 600 nm followed over time in a Tecan plate reader. The growth curves plotted are the average of three replicates; the standard deviation is represented for each time point.
(§1) During experiments in which inventors used an arabinose-inducible promoter to express fluorescently tagged proteins in V. cholerae, they occasionally observed the presence of spherical cells. […]. To better understand this phenotype, inventors grew V. cholerae cells to exponential phase in different liquid media and added increasing concentrations of L-Ara. After a few hours, they inspected the cells morphology at the microscope. […] To see the effect of L-Ara on cell proliferation and growth, overnight cultures were diluted into fresh media containing increasing amounts of the inducer. The OD of these cultures was monitored over time (Figure 2). […].

Assay [2] concerns V. cholerae N16961. Description: Microscopy inspection of cell morphology (spherical cells) after exposure to carbon sources. Type of assay: cell-based, Vibrio cholerae. Here is the method:
Cells were grown to exponential phase and spread on a 1% (w/v) agar pad (ultrapure agarose, Invitrogen) for analysis. For snapshot analyses, cells images were acquired using a DM6000-B (Leica) microscope. For time-lapse analyses the agarose pad was made using M9-MM and images were acquired using an Evolve 512 EMCCD camera (Roper Scientific) attached to an Axio Observe spinning disk (Zeiss).
as §1

Assay [3] deals with EPV50 (derived from El Tor isolate N16961). Description: microbe, parasite or virus in culture. Type of assay: cell-based. As to conditions: Vibrio cholerae. On the procedure:
An EPV50 (derived from El Tor isolate N16961) overnight culture was diluted 200 times in M9-MM, followed by 2 hours of growth at 30°C before 0.2% L-Ara was added and growth continued for other 5 hours. Cells were checked for complete transition to spherical morphology at the microscope. Serial dilutions of t0 (before L-Ara addition) and t1 (after L-Ara treatment) samples were plated on Luria Bertani (LB) agarose plates and the number of colonies used to calculate the CFU at t0 and t1. The ratio CFU t1 / CFU t0 is used to calculate the percentage of cells able to survive L-Ara treatment and revert to proliferating cells.

In the next assay the test system is EPV50. Description: Muropeptide analysis (peptidoglycan isolation and UPLC). In kind it is cell-based, Vibrio cholerae. On the procedure: EPV50 overnight cultures were diluted 200 times in M9-MM and grown at 30°C. 100 ml were centrifuged after 7 hours of growth and 1L of culture to which 0.2% L-Ara was added after 2 hours was harvested after further 5 hours of incubation. Cells were checked for complete transition to spherical morphology at the microscope. Previously described methods were followed for muropeptide isolation and ultra-performance liquid chromatography (UPLC) analysis [Desmarais et al. and Möll et al.]. After boiling for 2 hours cell pellets with SDS (sodium dodecyl sulfate) the lysates were left stirring over night at room temperature. Cell wall material was pelleted, washed with MQ water to remove the SDS, and digested with pronase E to remove Braun's lipoprotein. Purified peptidoglycan was re-suspended in MQ water and treated overnight with muramidase at 37°C. Soluble muropeptides were reduced with sodium borohydride and the pH then adjusted to 3.5 with phosphoric acid. Samples were injected in an ultra-performance liquid chromatography (UPLC) system to obtain the muropeptide profiles. UPLC separation was performed on a Waters UPLC system equipped with an ACQUITY UPLC BEH C18 Column, 130 Å, 1.7 µm, 2.1 mm × 150 mm (Waters) and a dual wavelength absorbance detector using a linear gradient from buffer A (phosphate buffer 50 mM, pH 4.35) to buffer B (phosphate buffer 50 mM, pH 4.95, methanol 15% (vol/vol)) in a 22-min run with a 0.25 mL/min flow. Elution of muropeptides was detected at 204 nm. Identity of the peaks was assigned by comparison of the retention times and profiles to other chromatograms in which mass spectrometry data has been collected. The relative amounts of the muropeptides and the percentage of cross-linkage were calculated as described by Glauner et al. To calculate the amount of peptidoglycan per cell, the total area of the muropeptides was normalized to the OD of the culture. All values are the means of three independent experiments.

Setting [4] is: M9-MM supplemented with casamino acids (CAA).
Where [5] appears, read: muropeptide group, M9-MM, 0.2% L-Ara for 5 hours.

With `O=C[C@@H](O)[C@H](O)[C@H](O)CO` [D-Arabinose, reference compound], the “effect on V. cholerae growth or morphology” value in the assay on V. cholerae N16961 [1] is given as “none of them, including D-Arabinose, affected V. cholerae growth or morphology”.

Turning to `O=C[C@H](O)[C@@H](O)[C@@H](O)CO` [L-Arabinose], in the assay with V. cholerae N16961 [2] (setting [4]), the “L-Ara concentration at which all cells exhibited the spherical phenotype” value was found to be 0.5% and the “L-Ara concentration at which spherical cells started to appear” value turned out to be 0.2%. Besides, in the assay with V. cholerae N16961 [2] (M9-MM, 0.02% L-Ara, a few hours), the cell morphology entry was “normal rod-shape”. The cell shape entry in the assay with V. cholerae N16961 [2] (M9-MM, 0.1% L-Ara (Figure 1A)) was “spherical shape with a heterogeneous diameter size”. In addition, the “L-Ara concentration at which cells became completely round” value with V. cholerae N16961 [2] (M9-MM, a few hours) is reported as 0.1%. The “L-Ara concentration that triggers a toxic response (stop of proliferation, loss of rod-shape)” value in the assay on V. cholerae N16961 [2] (Vibrio cholerae, summary statement) is 0.02%. The killing at 0.2 % in assay [3] (5 h, read-out: cell death) was ~50%. Further, the viability at 0.2 % in assay [3] (M9-MM, 0.2% L-Ara for 5 hours, ratio CFU t1 / CFU t0, read-out: percentage of survival to L-Ara treatment) is ~50%. Moreover, in the assay with V. cholerae N16961 [1] (M9-MM and M9-MM+CAA, increasing amounts of L-Ara), the “effect on cell growth (OD)” value is listed as “arrested V. cholerae cell growth”. Moreover, the “effect on V. cholerae growth or morphology” value in the assay on V. cholerae N16961 [1] was “deleterious effects on cell growth or cell morphology”. In the assay with EPV50 (setting [5]), the “Anhydro-muropeptides (%)” value is 21.9 (±3.7) %, the “DAP-DAP cross-linked muropeptides (%)” value is 7.5 (±0.9) %, the “Dimers (%)” value was 47.2 (±3.1) % and the “Trimers (%)” value is listed as 12.6 (±4.8) %. Moreover, the “Monomers (%)” value with EPV50 (muropeptide group, M9-MM, 0.2% L-Ara for 5 hours, mean of three experiments (±SD)) is listed as 40.2 (±3.2) %. In addition, the “Average glycan chain length” value in the assay on EPV50 (peptidoglycan feature, calculated from the number of anhydro-muropeptides, M9-MM, 0.2% L-Ara for 5 hours) is 7.5 (±1.1). For the same molecule, the “Total cross-linkage (%)” value with EPV50 (peptidoglycan feature, M9-MM, 0.2% L-Ara for 5 hours) is 47.2 (±5.0) %. In the assay with EPV50 (spherical L-Ara-treated bacteria, 0.2% L-Ara), the “amount of peptidoglycan per cell, times lower than in rod-shaped (non-treated) cells” value is given as “around 10 times”. Further, the “glycan chains, times shorter than in non-treated cells” value in the assay with EPV50 (spherical L-Ara-treated cells, 0.2% L-Ara) is “around 2 times”.
